Calls of active or inactive are those of the source.
Assays:
Large T antigen = Large T antigen (Simian virus 40, UniProt P03070); type: functional, Betapolyomavirus macacae;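 also: Confirmatory-stage PubChem screen for compounds that inhibit SV40 T antigen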
H9c2 = experiment: cells; type: functional, cell-based; conditions: Rattus norvegicus, H9c2, Myocardium;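 also: confirmatory concentration-response retest of ultra-high-throughput screening hits for modulation of myocardial damage; cell death induced by hydrogen peroxide oxidative stress; compound pretreatment for 60 min then peroxide exposure for 2 h; potency is for protecting the cells against peroxide damage rather than for killing them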
[1] = molecular target: T1, Polyadenylate-binding protein 1 (Homo sapiens, UniProt P11940); experiment: MLLE binding blockers, Cy5 peptide tracer – biochemical, fluorescence polarization, Cy5-PAM2 peptide, secondary, miRNA deadenylation inhibitor project, dose response (AID 602260); type: functional; conditions: read-out: IC50_Mean
[2] = molecular target: T1, Polyadenylate-binding protein 1; experiment: MLLE domain peptide-binding blockers, IC50 – biochemical, fluorescence polarization, FITC-PAM2 peptide, dose response (AID 602259); type: functional; conditions: read-out: IC50_Mean
Cytochrome P450 2C9 = Cytochrome P450 2C9 (Homo sapiens, UniProt P11712)
[3] = molecular target: T2, RNA-binding protein pos-1 (Caenorhabditis elegans, UniProt G5EF15); experiment: disruptors of C. elegans POS-1 RNA interaction – biochemical, fluorescence polarization, dose response (AID 1964);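 also: purified POS-1 fused to maltose binding protein made in E. coli; potency of compounds blocking POS-1 binding to fluorescent RNA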
T2 sequence (G5EF15 whole entry): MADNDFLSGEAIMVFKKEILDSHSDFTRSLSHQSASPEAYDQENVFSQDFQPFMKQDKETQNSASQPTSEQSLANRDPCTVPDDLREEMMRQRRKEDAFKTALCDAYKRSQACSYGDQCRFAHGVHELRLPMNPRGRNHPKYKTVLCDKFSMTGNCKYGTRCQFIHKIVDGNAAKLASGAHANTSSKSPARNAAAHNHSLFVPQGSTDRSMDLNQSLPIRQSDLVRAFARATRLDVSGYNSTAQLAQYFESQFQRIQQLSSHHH

[4] = molecular target: T3, Zinc finger protein mex-5 (Caenorhabditis elegans, UniProt Q9XUB2); experiment: potency of MEX-5 RNA-binding blockers – biochemical, C. elegans, fluorescence polarization, dose response (AID 1960)
T3 sequence (Q9XUB2 whole entry): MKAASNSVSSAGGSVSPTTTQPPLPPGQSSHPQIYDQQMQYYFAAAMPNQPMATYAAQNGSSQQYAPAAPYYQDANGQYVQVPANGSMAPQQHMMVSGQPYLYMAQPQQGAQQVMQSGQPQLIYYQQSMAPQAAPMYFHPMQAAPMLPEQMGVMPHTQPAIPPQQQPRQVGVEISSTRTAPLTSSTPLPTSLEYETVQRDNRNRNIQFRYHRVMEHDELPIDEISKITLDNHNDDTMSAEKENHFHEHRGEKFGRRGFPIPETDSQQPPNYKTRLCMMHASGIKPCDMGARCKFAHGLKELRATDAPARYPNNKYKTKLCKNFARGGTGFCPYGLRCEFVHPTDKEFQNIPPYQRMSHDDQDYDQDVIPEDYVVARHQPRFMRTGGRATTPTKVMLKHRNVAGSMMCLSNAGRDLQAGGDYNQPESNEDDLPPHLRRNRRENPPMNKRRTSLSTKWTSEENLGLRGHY

[5] = molecular target: T4, Corticotropin-releasing factor receptor 2/Corticotropin-releasing factor-binding protein (Homo sapiens, UniProt P24387+Q13324); experiment: Dose Response confirmation of uHTS hits for small molecule antagonists of the CRF-binding protein and CRF-R2 receptor complex.; type: functional; conditions: read-out: IC50_Mean
T4 sequence (Q13324 whole entry): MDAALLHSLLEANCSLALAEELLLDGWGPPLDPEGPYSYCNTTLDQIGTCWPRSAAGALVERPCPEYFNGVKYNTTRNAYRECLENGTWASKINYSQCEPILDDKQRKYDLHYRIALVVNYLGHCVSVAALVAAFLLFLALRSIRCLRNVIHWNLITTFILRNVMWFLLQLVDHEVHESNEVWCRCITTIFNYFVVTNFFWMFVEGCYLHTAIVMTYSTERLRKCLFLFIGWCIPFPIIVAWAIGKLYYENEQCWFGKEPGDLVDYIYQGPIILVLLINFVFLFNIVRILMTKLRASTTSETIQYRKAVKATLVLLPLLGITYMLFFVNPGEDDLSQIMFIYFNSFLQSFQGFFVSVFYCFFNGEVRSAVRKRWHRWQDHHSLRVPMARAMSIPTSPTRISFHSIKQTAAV
T4 sequence (P24387 whole entry): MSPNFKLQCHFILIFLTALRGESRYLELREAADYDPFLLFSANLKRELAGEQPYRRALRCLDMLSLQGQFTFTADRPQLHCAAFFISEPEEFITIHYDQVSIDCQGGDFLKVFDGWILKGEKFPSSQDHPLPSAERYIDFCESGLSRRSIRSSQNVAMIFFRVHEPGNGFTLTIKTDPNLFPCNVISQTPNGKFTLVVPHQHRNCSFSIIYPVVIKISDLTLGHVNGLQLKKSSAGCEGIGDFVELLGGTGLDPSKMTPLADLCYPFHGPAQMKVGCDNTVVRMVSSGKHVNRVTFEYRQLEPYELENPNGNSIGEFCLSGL

[6] = molecular target: T4, Corticotropin-releasing factor receptor 2/Corticotropin-releasing factor-binding protein; experiment: activators of CRF receptor 2 with binding protein – uHTS hits, confirmation (AID 602473); type: functional; conditions: read-out: EC50_Mean
cells [7] = type: functional
cells [8] = type: functional, cell-based
cells [9] = type: functional, cell-based; remark: listed apart in the source
Cytochrome P450 1A2 = molecular target: T5, Cytochrome P450 1A2 (Homo sapiens, UniProt P05177);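 also: PubChem cytochrome P450 panel assay, CYP1A2 panel member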
T5 sequence (P05177 whole entry): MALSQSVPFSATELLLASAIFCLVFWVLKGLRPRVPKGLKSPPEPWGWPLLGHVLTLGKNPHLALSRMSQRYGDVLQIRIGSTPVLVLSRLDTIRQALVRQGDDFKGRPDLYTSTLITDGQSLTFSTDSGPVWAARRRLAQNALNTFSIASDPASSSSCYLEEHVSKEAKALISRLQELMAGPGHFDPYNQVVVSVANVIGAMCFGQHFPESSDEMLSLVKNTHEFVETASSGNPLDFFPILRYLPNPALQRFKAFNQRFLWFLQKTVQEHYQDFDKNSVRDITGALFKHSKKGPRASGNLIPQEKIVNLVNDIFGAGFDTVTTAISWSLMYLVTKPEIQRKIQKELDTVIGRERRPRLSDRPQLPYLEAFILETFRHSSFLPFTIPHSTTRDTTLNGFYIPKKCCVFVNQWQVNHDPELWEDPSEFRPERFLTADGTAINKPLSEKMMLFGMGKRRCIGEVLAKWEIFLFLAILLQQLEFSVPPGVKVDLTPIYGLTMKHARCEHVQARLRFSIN

Cytochrome P450 2C19 = Cytochrome P450 2C19 (Homo sapiens, UniProt P33261); experiment: Cytochrome panel assay with activity outcomes. Panel member name: p450-cyp2c19 Compounds with AC50 equal or less than 10 uM are considered active; type: functional; conditions: read-out: AC50
Cytochrome P450 2D6 = Cytochrome P450 2D6 (Homo sapiens, UniProt P10635);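 also: CYP2D6 member of a cytochrome P450 panel assay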
[10] = molecular target: Glyceraldehyde-3-phosphate dehydrogenase (Homo sapiens, UniProt P04406)
[11] = molecular target: FAD-linked sulfhydryl oxidase ALR (Homo sapiens, UniProt P55789); experiment: ALR-catalysed DTT oxidation blockers – biochemical, H2O2 detection, luminescence, cherry-pick, dose response (AID 493248)
FAD-linked sulfhydryl oxidase ALR, sequence (P55789 whole entry): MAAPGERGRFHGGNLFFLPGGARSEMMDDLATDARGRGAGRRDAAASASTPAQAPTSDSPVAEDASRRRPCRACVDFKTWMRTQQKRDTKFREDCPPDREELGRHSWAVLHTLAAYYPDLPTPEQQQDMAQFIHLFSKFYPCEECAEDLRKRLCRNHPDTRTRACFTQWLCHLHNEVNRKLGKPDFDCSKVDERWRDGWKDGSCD

Large T antigen, sequence (P03070 whole entry): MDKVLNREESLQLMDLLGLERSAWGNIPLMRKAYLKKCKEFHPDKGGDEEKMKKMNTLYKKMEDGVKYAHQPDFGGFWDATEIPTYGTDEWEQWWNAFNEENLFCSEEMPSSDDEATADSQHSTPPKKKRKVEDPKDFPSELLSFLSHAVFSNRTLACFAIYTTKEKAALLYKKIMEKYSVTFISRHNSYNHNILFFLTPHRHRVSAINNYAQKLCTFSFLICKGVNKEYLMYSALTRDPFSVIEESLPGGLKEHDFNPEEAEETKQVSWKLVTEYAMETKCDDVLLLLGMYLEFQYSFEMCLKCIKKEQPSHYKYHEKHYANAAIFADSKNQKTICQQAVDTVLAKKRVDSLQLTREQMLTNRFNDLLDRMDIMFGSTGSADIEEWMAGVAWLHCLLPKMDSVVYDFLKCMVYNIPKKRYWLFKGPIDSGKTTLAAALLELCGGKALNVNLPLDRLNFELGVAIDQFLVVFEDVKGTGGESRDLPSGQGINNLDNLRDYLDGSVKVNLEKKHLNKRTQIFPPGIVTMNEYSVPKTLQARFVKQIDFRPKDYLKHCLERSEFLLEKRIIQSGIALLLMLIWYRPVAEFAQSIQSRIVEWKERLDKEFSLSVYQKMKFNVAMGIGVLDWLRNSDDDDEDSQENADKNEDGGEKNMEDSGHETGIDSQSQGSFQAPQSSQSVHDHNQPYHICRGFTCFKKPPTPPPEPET
Cytochrome P450 2C9, sequence (P11712 whole entry, the tested form may be a part): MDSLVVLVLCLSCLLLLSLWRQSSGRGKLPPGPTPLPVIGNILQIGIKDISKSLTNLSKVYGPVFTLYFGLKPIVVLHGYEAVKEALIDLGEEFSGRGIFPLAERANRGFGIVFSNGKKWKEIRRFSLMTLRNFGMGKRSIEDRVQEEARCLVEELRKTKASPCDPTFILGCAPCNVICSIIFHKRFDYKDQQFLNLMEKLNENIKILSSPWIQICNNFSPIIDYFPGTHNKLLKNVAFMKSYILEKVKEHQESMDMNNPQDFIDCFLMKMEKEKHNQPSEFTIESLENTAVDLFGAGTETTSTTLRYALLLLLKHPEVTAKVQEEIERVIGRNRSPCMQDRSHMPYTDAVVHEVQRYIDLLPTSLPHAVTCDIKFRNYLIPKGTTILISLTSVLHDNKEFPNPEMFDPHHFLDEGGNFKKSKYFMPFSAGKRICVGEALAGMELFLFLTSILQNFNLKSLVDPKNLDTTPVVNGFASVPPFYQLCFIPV
T1 sequence (P11940 whole entry, the tested form may be a part): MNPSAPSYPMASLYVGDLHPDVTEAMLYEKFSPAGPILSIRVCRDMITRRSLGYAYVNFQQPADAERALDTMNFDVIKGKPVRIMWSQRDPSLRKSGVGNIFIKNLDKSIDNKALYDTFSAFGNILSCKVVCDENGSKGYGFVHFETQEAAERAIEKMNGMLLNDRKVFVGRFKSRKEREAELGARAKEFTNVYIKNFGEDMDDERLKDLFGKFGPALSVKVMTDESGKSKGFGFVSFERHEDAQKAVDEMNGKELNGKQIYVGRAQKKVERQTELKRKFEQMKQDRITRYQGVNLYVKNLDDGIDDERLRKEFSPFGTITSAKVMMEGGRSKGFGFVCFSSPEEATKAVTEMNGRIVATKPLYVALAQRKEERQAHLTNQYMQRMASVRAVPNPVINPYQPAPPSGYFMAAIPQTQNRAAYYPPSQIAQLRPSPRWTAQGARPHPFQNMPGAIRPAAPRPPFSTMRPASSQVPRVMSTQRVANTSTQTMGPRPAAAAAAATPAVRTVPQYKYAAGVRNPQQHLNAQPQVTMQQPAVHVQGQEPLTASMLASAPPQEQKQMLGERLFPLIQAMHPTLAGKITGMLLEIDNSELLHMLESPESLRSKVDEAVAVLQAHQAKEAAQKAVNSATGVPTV
Glyceraldehyde-3-phosphate dehydrogenase, sequence (P04406 whole entry): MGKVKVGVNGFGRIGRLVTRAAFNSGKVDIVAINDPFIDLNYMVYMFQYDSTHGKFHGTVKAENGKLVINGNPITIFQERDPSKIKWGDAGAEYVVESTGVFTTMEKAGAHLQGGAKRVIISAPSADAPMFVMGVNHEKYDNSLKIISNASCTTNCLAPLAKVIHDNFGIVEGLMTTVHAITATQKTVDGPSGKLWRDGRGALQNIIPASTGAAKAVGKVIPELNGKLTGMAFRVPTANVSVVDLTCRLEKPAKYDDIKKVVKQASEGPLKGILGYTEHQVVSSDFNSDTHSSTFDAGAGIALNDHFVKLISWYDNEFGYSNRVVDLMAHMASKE
Cytochrome P450 2C19, sequence (P33261 whole entry): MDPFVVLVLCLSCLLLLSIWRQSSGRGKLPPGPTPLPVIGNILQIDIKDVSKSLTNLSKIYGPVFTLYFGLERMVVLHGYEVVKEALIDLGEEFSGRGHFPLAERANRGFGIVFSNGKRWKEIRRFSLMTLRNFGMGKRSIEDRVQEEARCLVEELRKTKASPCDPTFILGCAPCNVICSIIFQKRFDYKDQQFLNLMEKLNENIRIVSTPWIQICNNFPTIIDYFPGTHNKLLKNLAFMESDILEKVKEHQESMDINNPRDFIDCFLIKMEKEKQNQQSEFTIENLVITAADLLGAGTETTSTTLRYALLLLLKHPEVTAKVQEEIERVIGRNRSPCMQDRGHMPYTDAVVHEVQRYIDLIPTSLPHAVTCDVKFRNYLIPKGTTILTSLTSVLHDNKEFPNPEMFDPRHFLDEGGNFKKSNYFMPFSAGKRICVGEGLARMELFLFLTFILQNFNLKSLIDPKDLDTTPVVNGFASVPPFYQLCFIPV
Cytochrome P450 2D6, sequence (P10635 whole entry): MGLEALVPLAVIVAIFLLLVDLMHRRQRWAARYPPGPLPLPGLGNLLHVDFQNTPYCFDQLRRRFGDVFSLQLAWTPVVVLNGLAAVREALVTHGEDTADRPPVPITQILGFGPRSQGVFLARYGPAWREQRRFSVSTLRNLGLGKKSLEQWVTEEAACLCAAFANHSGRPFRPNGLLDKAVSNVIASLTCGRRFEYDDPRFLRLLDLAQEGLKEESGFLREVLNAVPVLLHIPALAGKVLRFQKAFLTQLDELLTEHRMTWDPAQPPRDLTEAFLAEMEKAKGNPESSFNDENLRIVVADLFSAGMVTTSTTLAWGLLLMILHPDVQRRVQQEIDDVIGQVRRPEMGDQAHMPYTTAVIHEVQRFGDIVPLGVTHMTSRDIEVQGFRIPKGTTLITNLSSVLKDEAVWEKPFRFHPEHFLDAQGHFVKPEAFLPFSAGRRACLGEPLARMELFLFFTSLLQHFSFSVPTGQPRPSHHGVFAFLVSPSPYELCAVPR

NS(=O)(=O)c1ccc(-c2ccc(C=C3C(=O)NC(=S)NC3=O)o2)cc1
IC50 (Large T antigen): 10.5 µM (active)

COc1ccc(OCC(O)Cn2c(Br)nc3c2c(=O)[nH]c(=O)n3C)cc1 (stereo not given)
IC50 (H9c2): 16.4 µM (active)

O=C(COc1ccc(Cl)cc1)NCc1nnc(O)c2ccccc12
IC50 (H9c2): > 79 µM (inactive)

Cc1cc2cc(CNC(=O)Cc3cccs3)ccc2n1C
IC50 [1]: > 66 µM (inactive)
IC50 [2]: > 66 µM (inactive)

COc1ccc(C(=O)Nc2ccc(Cl)cn2)cc1Cl
AC50 (Cytochrome P450 2C9): inconclusive

N#CC1=C(N)OC2=C(C(=O)CC(c3ccccc3)C2)C1c1ccc2c(c1)OCO2 (stereo not given)
EC50 [3]: > 300 µM (not active)
EC50 [4]: > 300 µM (not active)
IC50 [5]: > 47.1 µM (inactive)
EC50 [6]: > 53 µM (inactive)

COc1ccc(C(=O)COC(=O)c2ccc([N+](=O)[O-])s2)cc1OC
IC50 (cells [7]): 10.6 µM (active)
IC50 (H9c2): > 79 µM (inactive)

COc1ccc(C2(C)NC(=O)NC2=O)cc1OC (stereo not given)
EC50 (cells [8]): > 350 µM (not active)
EC50 (cells [9]): 116 µM (active)

COc1ccccc1OCC(=O)NNC(=O)c1cnccn1
IC50 [5]: > 47.1 µM (inactive)
EC50 [6]: > 53 µM (inactive)
AC50 (Cytochrome P450 1A2): 17.8 µM (inconclusive)
AC50 (Cytochrome P450 2C9): inconclusive

CCNc1ncc2ncc(=O)n(C3CC3)c2n1
AC50 (Cytochrome P450 2C9): inconclusive

Cn1c(=O)c2cc(S(=O)(=O)NCCC(=O)N3CC=C(c4ccccc4)CC3)ccc2n(C)c1=O
AC50 (Cytochrome P450 2C19): 25.1 µM (inconclusive)
AC50 (Cytochrome P450 2D6): 17.8 µM (inconclusive)
AC50 (Cytochrome P450 1A2): 31.6 µM (inconclusive)
AC50 (Cytochrome P450 2C9): inconclusive

CC(C)OCCCNC(=O)CCC(=O)NNc1nc2ccccc2c2nc(-c3ccccc3)nn12
IC50 (H9c2): 13.5 µM (active)

O=C(CC1CCCCC1)Nc1nc[nH]n1
IC50 [10]: > 10 µM (inconclusive)

O=C(NCc1ccccc1)C(=O)c1cn(CC(=O)N2CCOCC2)c2ccccc12
EC50 (cells [8]): > 350 µM (not active)
EC50 (cells [9]): > 350 µM (not active)

CN(C)/C=C/C(=O)c1cnc(-c2ccccc2Cl)s1
EC50 [3]: > 300 µM (not active)
EC50 [4]: > 300 µM (not active)

COc1ccc(OC)c2nc(O)c(CCNC(=O)COc3ccccc3)cc12
AC50 (Cytochrome P450 2C9): inconclusive

CC1CCN(C(=O)CSc2nncn2-c2ccccn2)CC1
IC50 [1]: > 66 µM (inactive)
IC50 [2]: > 66 µM (inactive)

C=CCNC(=O)c1onc(CSc2cc(C)ccc2C)c1C(=O)O
AC50 [11]: 4.81 µM (active)

O=C(NC(=S)N1CCCCCC1)c1ccccc1Cl
IC50 [1]: > 66 µM (inactive)
IC50 [2]: > 66 µM (inactive)

COC(=O)c1ccc(C(C(=O)NCc2ccccc2)N(Cc2cccs2)C(=O)c2cnccn2)cc1 (stereo not given)
IC50 (H9c2): 8.82 µM (active)

C/C(=N/NS(=O)(=O)c1cccc([N+](=O)[O-])c1)c1c[nH]c2ccccc12
IC50 (Large T antigen): 17 µM (active)

O=C(O)CN1C(=O)C2C3CC(C2C1=O)C1C(c2ccc(F)cc2)c2sc(O)nc2SC31 (stereo not given)
IC50 [1]: > 66 µM (inactive)
IC50 [2]: > 66 µM (inactive)

COc1ccc(Nc2nc(N/N=C/c3ccc(N(C)C)cc3)nc(C)c2[N+](=O)[O-])cc1
EC50 (cells [8]): > 350 µM (not active)
EC50 (cells [9]): > 350 µM (not active)

CC(C)C1Nc2ccc(S(N)(=O)=O)cc2C2C=CCC21 (stereo not given)
EC50 [3]: 52.4 µM (active)
EC50 [4]: 30.4 µM (active)

CCOC(=O)C1CCN(c2cc3c(cc2NC(=O)c2ccccc2Cl)n(C)c(=O)n3C)CC1
IC50 (H9c2): > 79 µM (inactive)

O=C(O)c1cscc1Cc1cccs1
AC50 (Cytochrome P450 2C9): inconclusive

Cc1ccc(-c2nc(C#N)c(NCCN3CCCCC3)o2)cc1
AC50 [11]: 4.4 µM (active)

CCOC(=O)C1=C(O)/C(=C/c2cccc(OC)c2O)N=C1C
IC50 (Large T antigen): 16.4 µM (active)

O=C(O)C1CSC(c2coc3ccccc3c2=O)N1 (stereo not given)
AC50 [11]: 0.083 µM (active)

Cc1ccccc1NC(=O)CSC(=O)c1ccccc1
IC50 [1]: > 66 µM (inactive)
IC50 [2]: > 66 µM (inactive)

O=C(O)c1ccccc1C(=O)Nc1ccc(-c2csc(-c3ccccc3)n2)cc1
AC50 [11]: 0.218 µM (active)

CN1CCC2(CC1)N=C(c1ccc(F)cc1)C(=S)N2C(=O)c1ccc(C(C)(C)C)cc1
EC50 (cells [8]): > 350 µM (not active)
EC50 (cells [9]): 73.9 µM (active)

Cc1ccc2cc3c(N)[nH]nc3nc2c1
IC50 (Large T antigen): 13.1 µM (active)

CCC(CC)C(=O)Nc1cc(C)c2c(=O)oc3ccccc3c2n1
IC50 (H9c2): > 79 µM (inactive)

CCC(C)N(C(=O)COC(=O)/C=C/c1ccc(O)c(OC)c1)C1CCS(=O)(=O)C1 (stereo not given)
IC50 (Large T antigen): 11.4 µM (active)

COc1ccc(/C=N/NC(=O)c2ccccc2O)cc1CSc1ccccn1
EC50 (cells [8]): > 350 µM (not active)
EC50 (cells [9]): > 350 µM (not active)

Cc1nnc(Nc2ccc(O)cc2)nc1O
IC50 (Large T antigen): 33 µM (active)

COc1cccc(C2=NOC(C(=O)Nc3ccc(OC)c(OC)c3)C2)c1 (stereo not given)
AC50 (Cytochrome P450 2C19): 25.1 µM (inconclusive)
AC50 (Cytochrome P450 2C9): inconclusive

c1ccc(-n2cnc3cc(NCc4ccccn4)ccc32)cc1
AC50 [11]: 1.17 µM (active)

COC(=O)CNc1c(-c2ccccc2)nc2ccc(Br)cn12
AC50 [11]: 1.08 µM (active)

COc1cccc(OCc2cc(C(=O)N3CCN(c4ccccc4OC)CC3)no2)c1
EC50 (cells [8]): > 350 µM (not active)
EC50 (cells [9]): 66.7 µM (active)

NC(=S)c1cnn2c(-c3cccc(C(F)(F)F)c3)ccnc12
IC50 [1]: > 66 µM (inactive)
IC50 [2]: > 66 µM (inactive)

CCC(ONc1ccccc1C(F)(F)F)(C(=O)NN(C)C)c1ccccc1 (stereo not given)
IC50 (H9c2): 33.3 µM (inactive)

Cc1ccc(S(=O)(=O)Nc2ccc(O)c(C(=O)O)c2)c(C)c1
IC50 [10]: > 100 µM (not active)

COC(=O)[C@H](CCSC)NC(=O)C/C=C\[C@@H](C)CO
AC50 (Cytochrome P450 2C9): inconclusive

Source: ChEMBL document CHEMBL1201862, “PubChem BioAssay data set” (2004)
